For series [1], the target named is BRAF (Homo sapiens, UniProt P15056). The series can be described thus: Kinase selectivity panel. The format is biochemical. The note with it: [ATP] = 1 mM.
Series [2] relates to INA-6 cells. The experiment in a line: STAT3(Y705) and PIM kinase substrate phosphorylation in INA-6 cells in culture. The note with it: INA-6 cells treated for 24 hours in culture. In kind it is cell-based. The method, then: Fig S1. Effects of INCB053914 on STAT3(Y705) and PIM kinase substrate phosphorylation in INA-6 cells treated for 24 hours in culture.
Series [3] has as its target MAP3K8 (Homo sapiens, UniProt P41279). The series can be described thus: Kinase selectivity panel. The note with it: [ATP] = 1 mM. The format is biochemical.
The subject of series [4] is BAD phosphorylation in whole blood spiked with KMS-12-BM cells. The experiment in a line: BAD phosphorylation in whole blood samples spiked with tumor cells, treated ex vivo. In kind it is cell-based. Particulars: Homo sapiens.
The target of series [5] is FGFR3 (Homo sapiens, UniProt P22607). The series can be described thus: Kinase selectivity panel. The format is biochemical. Particulars: [ATP] = 1 mM.
Series [6] deals with AURKA (Homo sapiens, UniProt O14965). The experiment in a line: Kinase selectivity panel. In kind it is biochemical. The note with it: [ATP] = 1 mM.
The test system of series [7] is human KG-1 AML xenografts. The experiment in a line: Tumor growth in KG-1 (AML) xenograft, combination with cytarabine. The format is in vivo, mouse. Particulars: KG-1 (AML) tumors.
Series [8] deals with primary bone marrow blasts from patients with AML. The series can be described thus: Ex vivo treatment of primary bone marrow blasts from patients with AML (Western blot). In kind it is cell-based, human. The procedure: The effects of INCB053914 on pBAD, pp70S6K, and p4E-BP1 levels and on the expression of PIM isozymes also were assessed ex vivo in primary bone marrow blasts (Stem Cell and Xenograft Core, University of Pennsylvania, Philadelphia, Pennsylvania) or in peripheral blood mononuclear cells (PBMCs) derived from whole blood samples obtained with informed written consent from adult patients with AML enrolled in an ongoing phase 1/2 dose-escalation trial, which was conducted in accordance with the study protocol approved by the respective institutional review boards or independent ethics committees. Only samples initially containing >90% viable cells were used (assessed by Trypan Blue staining). Immediately after thawing, the blasts were cultured in RPMI + 10% FBS with INCB053914 for 2 hours at 37°C, before lysis. For determinations of PIM2 expression in PBMCs, whole blood samples were treated overnight with increasing concentrations of INCB053914; total PBMCs were isolated by Ficoll-Paque density gradient centrifugation before lysis. The levels of PIM isozymes and phosphoproteins in cell lysates were detected by Western blotting using the same primary antibodies as above.
A general note: Immunoblotting shows a protein as a band on a membrane.

For series [9], the target named is PRKAA1 (Homo sapiens, UniProt Q13131). The series can be described thus: Kinase selectivity panel. The format is biochemical. Particulars: [ATP] = 1 mM.
In series [10] the target is ERBB4 (Homo sapiens, UniProt Q15303). The series can be described thus: Kinase selectivity panel. The note with it: [ATP] = 1 mM. In kind it is biochemical.
Series [11] concerns the target PIM3 (Homo sapiens, UniProt Q86V86). The series can be described thus: PIM3 AlphaScreen kinase assay. The note with it: 1 mM ATP; read-out: Mean (SD) IC50. The format is biochemical. A general note: Bead proximity is the source of the signal in Alpha formats.
Procedure: AlphaScreen assay. Reactions (20 μl) were carried out in white 384-well polystyrene plates (Greiner Bio-One, Kremsmünster, Austria) dotted with 0.8 μl of the compound in dimethylsulfoxide in the assay buffer (50 mM Tris, pH 7.5, 0.01% Tween-20, 5 mM MgCl2, 0.01% bovine serum albumin [BSA], 5 mM dithiothreitol) containing 0.05 μM Biotin-labeled Bcl-2–associated death promoter protein peptide substrate (AnaSpec, Fremont, California), 1 mM ATP, and 2.5 pM PIM1 (Invitrogen, Thermo Fisher Scientific, Waltham, Massachusetts), or 1.25 pM PIM3 (Millipore, Billerica, Massachusetts) enzyme. After 1 hour at 25°C, the reactions were stopped with 10 μl STOP Buffer (150 mM Tris, pH 7.5, 150 mM NaCl, 75 mM ethylenediaminetetraacetic acid [EDTA], 0.01% Tween-20, 0.3% BSA) supplemented with Phospho-Bad (Ser112) antibody (Cell Signaling Technology, Danvers, Massachusetts) diluted 666-fold, and Streptavidin donor beads (PerkinElmer, Waltham, Massachusetts), along with Protein-A acceptor beads (PerkinElmer, Akron, Ohio), at 15 μg/ml each. Supplementation of STOP buffer with beads and stopping the reactions were carried out under reduced light. […] After the reactions were stopped, the plates were incubated for 1 hour in the dark at room temperature and then read on a PHERAstar FS plate reader (BMG Labtech, Cary, North Carolina) under reduced light.
Series [12] has as its target ZAP70 (Homo sapiens, UniProt P43403). The series can be described thus: Kinase selectivity panel. Particulars: [ATP] = 1 mM. The format is biochemical.
Series [13] deals with IGF1R (Homo sapiens, UniProt P08069). The experiment in a line: Kinase selectivity panel. The format is biochemical. Particulars: [ATP] = 1 mM.
Series [14] addresses LRRK2 (Homo sapiens, UniProt Q5S007). The series can be described thus: Kinase selectivity panel. The note with it: [ATP] = 1 mM. The format is biochemical.
The test system of series [15] is MM cell lines. The experiment in a line: Cell proliferation assay, all MM cell lines tested. Particulars: read-out: mean GI50 values, range over all MM cell lines tested. In kind it is cell-based. The method, then:
The antiproliferative effects of INCB053914 on hematologic tumor cells were investigated using assays described in the Supporting Information (S2 File).
Cell proliferation assays. […] After 3 to 4 days, [^3H]-thymidine (1 μCi/well) (PerkinElmer) in PBS (10 μl) was added to the cell culture for an additional 12 hours. The incorporated radioactivity was separated by filtration with water through GF/B filters (Packard Bioscience, Meriden, Connecticut) and measured by liquid scintillation counting with a TopCount (Packard Bioscience).

Series [16] has as its target RET (Homo sapiens, UniProt P07949). The experiment in a line: Kinase selectivity panel. In kind it is biochemical. The note with it: [ATP] = 1 mM.
Series [17] addresses PHKG2 (Homo sapiens, UniProt P15735). The experiment in a line: Kinase selectivity panel. In kind it is biochemical. The note with it: [ATP] = 1 mM.
Series [18] can be described thus: Tolerability in tumor-bearing SCID mice. In kind it is in vivo. The note with it: MOLM-16 and KMS-12-BM tumor-bearing mice, oral twice a day up to 100 mg/kg. The method, then: Non- GLP studies intended to characterize the pharmacology of INCB053914 were conducted in accordance with Incyte Corporation's Animal Use Protocols and DuPont Stine-Haskell SOPs. Animals were housed in barrier facilities fully accredited by the Association for Assessment and Accreditation of Laboratory Animal Care, International. All of the procedures were conducted under the supervision of a veterinarian and in accordance with the U.S. Public Health Service Policy on Humane Care and Use of Laboratory Animals. […] Analgesics and anesthetics could be used to minimize animal suffering and distress; neither were required during these studies. Animals on study were monitored twice daily and there were no unexpected deaths.
For the evaluation of the effects of INCB053914 on tumor growth, tumor-bearing mice (MOLM-16 xenograft, eight mice/group; KMS-12-BM xenograft, nine mice/group) were dosed orally twice a day with INCB053914 at doses ranging from 0 (vehicle) to 100 mg/kg for 15 days.

For series [19], the target named is EPHB4 (Homo sapiens, UniProt P54760). The series can be described thus: Kinase selectivity panel. The format is biochemical. The note with it: [ATP] = 1 mM.
In series [20] the target is SRC (Homo sapiens, UniProt P12931). The series can be described thus: Kinase selectivity panel. In kind it is biochemical. The note with it: [ATP] = 1 mM.

The IC50 is the concentration that inhibits the measured activity by half. As a reminder, the GI50 is the concentration that inhibits growth by half.

Sequence of BRAF (P15056 whole entry): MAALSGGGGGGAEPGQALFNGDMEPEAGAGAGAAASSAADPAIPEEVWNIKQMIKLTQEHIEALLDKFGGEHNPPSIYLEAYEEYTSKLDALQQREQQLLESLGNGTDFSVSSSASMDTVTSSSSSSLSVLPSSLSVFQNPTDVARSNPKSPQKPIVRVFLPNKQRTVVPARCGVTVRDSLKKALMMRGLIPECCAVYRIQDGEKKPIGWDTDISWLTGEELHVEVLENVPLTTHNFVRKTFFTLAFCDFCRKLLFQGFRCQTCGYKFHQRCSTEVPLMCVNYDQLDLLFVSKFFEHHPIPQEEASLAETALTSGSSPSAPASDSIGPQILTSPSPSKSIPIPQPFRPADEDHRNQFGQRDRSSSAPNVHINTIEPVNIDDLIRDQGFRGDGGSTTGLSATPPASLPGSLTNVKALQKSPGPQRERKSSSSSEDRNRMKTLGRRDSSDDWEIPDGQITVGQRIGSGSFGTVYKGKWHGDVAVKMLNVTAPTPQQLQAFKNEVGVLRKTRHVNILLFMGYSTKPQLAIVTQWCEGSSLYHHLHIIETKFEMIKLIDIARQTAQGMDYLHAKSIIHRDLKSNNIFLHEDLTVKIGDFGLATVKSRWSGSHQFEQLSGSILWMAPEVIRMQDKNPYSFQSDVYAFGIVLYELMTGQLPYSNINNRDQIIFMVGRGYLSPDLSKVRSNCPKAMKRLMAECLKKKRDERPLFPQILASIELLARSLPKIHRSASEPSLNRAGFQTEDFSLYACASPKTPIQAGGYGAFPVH
Sequence of LRRK2 (Q5S007 whole entry): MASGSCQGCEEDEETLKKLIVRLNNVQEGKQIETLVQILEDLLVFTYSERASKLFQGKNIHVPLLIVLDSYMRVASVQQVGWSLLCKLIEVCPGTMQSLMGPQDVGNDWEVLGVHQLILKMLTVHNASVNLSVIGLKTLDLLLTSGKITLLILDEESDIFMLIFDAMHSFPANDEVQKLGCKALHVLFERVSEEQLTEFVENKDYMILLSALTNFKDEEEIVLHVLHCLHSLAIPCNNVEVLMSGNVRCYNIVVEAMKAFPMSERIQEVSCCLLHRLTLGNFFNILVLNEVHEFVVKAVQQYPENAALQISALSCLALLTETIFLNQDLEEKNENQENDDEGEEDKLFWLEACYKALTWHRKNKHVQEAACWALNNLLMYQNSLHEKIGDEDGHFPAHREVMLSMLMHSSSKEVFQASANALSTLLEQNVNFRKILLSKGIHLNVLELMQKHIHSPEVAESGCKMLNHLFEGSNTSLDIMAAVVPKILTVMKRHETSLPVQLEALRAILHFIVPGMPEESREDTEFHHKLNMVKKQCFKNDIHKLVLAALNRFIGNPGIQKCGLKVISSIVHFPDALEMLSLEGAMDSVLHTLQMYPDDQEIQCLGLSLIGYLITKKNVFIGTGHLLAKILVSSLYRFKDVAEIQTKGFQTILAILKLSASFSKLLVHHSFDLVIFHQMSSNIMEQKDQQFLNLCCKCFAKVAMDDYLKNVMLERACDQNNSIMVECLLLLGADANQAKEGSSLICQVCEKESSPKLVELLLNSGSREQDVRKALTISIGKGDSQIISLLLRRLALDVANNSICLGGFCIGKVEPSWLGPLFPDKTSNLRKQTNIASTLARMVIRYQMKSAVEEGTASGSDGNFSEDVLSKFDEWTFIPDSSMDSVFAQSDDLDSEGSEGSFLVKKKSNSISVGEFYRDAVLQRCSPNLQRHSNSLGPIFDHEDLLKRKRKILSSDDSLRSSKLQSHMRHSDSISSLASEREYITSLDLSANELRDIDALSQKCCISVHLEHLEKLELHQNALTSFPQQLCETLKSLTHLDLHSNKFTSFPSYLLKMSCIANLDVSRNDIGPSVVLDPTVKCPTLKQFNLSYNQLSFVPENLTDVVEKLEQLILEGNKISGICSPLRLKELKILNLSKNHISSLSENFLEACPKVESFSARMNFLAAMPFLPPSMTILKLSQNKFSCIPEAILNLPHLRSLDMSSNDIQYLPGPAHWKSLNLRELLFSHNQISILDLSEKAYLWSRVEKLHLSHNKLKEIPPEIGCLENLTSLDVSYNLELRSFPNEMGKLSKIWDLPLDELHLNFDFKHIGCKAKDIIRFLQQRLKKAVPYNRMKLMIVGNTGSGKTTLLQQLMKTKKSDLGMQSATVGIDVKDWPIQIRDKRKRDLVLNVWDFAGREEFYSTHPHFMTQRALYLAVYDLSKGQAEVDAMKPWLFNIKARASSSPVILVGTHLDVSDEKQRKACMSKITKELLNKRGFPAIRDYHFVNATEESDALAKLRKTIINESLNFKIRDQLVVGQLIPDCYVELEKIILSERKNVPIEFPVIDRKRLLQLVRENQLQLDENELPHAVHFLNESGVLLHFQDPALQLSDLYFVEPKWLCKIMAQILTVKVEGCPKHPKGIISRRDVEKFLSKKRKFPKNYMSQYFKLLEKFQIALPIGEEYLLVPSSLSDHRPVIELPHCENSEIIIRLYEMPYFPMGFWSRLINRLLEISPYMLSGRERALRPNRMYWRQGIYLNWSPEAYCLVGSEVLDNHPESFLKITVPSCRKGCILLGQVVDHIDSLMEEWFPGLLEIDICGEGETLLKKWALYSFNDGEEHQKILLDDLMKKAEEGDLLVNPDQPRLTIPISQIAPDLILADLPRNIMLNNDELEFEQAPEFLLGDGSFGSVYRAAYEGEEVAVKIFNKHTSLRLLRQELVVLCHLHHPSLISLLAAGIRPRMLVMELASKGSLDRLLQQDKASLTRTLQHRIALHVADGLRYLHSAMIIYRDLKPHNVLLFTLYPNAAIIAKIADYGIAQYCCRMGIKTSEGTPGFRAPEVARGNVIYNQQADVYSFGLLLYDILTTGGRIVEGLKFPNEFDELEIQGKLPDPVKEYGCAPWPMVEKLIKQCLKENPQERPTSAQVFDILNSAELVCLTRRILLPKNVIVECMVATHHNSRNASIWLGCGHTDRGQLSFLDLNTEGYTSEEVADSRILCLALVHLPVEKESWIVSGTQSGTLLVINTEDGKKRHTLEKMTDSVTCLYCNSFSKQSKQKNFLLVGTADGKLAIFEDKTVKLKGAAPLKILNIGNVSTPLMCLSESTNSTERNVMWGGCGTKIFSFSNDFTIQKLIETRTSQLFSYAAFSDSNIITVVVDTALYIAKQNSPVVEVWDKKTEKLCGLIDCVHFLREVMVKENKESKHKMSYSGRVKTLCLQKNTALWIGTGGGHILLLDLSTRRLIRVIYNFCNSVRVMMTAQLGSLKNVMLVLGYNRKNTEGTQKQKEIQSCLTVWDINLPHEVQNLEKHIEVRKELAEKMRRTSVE
Sequence of AURKA (O14965 whole entry): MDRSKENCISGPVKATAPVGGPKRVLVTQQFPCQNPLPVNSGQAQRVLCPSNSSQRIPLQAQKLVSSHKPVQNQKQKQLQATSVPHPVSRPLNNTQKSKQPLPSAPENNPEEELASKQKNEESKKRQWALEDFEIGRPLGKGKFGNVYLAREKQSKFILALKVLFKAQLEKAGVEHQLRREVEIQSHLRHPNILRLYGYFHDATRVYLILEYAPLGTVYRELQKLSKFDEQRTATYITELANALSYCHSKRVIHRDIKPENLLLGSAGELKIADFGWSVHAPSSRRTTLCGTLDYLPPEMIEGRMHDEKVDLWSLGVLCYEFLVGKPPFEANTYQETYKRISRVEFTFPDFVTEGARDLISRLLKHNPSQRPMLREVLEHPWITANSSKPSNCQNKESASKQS
Sequence of EPHB4 (P54760 16-987): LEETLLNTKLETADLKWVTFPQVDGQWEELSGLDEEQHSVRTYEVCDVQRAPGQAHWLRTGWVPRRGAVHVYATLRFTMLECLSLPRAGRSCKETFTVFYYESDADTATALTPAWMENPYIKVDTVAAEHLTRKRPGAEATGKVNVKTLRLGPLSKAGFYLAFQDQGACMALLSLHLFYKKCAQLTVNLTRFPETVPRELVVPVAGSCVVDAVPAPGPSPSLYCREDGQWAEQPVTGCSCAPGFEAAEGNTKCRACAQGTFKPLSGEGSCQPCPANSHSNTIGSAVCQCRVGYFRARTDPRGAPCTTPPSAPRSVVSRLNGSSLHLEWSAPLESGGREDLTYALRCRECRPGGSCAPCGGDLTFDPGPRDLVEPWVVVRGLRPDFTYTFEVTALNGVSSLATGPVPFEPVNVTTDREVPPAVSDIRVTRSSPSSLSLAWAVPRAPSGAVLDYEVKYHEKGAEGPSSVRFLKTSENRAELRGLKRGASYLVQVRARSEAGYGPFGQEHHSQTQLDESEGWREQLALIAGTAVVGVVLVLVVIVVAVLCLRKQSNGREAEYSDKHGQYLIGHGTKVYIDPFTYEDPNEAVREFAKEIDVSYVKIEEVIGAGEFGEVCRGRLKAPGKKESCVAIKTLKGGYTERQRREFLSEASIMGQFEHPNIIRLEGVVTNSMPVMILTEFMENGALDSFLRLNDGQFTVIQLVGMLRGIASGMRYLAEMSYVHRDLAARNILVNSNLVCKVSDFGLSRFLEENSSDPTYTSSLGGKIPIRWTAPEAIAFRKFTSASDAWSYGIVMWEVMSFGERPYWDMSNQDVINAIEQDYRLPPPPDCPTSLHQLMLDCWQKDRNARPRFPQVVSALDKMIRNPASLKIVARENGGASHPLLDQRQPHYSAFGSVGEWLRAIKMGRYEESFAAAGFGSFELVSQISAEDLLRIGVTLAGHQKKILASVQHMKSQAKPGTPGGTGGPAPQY
Sequence of PHKG2 (P15735 whole entry): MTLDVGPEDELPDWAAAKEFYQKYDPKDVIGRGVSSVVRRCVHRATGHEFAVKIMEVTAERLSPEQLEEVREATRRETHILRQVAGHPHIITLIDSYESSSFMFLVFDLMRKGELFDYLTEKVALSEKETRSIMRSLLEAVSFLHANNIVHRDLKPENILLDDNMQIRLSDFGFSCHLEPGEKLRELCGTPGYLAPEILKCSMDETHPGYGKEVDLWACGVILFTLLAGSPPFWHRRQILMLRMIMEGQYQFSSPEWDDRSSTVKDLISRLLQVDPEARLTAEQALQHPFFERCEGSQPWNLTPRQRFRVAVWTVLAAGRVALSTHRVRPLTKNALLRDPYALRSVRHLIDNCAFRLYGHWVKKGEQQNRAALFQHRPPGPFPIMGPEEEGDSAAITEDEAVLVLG

Regarding `C[C@H]1CN(c2c(NC(=O)c3ccc(F)c(-c4c(F)cccc4F)n3)cnc3c2CC[C@H]3O)C[C@@H](N)[C@@H]1O.O=P(O)(O)O` [INCB053914, N-((R)-4-((3R,4R,5S)-3-amino-4-hydroxy-5-methylpiperidin-1-yl)-7-hydroxy-6,7-dihydro-5H-cyclopenta[b]pyridin-3-yl)-6-(2,6-difluorophenyl)-5-fluoropicolinamide phosphate], the IC50 is greater than 20 µM in series [1]; greater than 20 µM in series [3]; 0.134 µM in series [4]; greater than 20 µM in series [5]; greater than 20 µM in series [6]; greater than 20 µM in [9]. The IC50 is greater than 20 µM in series [10]; 0.00012 µM in series [11]; greater than 20 µM in series [12]; greater than 20 µM in series [13]; greater than 20 µM in series [14]; greater than 20 µM in series [16]. For the same compound, the IC50 in [17], in series [19] and in [20] was greater than 20 µM in each case. Also, the “pSTAT3(Y705) levels” value in series [2] is listed as “negligible effects”. Moreover, in series [7], the “tumor growth, single agent” value is listed as “inhibited”. For the same compound, the “patients whose blasts showed decreases in BAD phosphorylation” value in [8] is recorded as “two of four patients”. The PIM2 expression result in [8] (2 hours) is “increased PIM2 expression”. For the same compound, the “phosphorylation of p70S6K and 4E-BP1” value in series [8] (2 hours) is “decreased phosphorylation of p70S6K and 4E-BP1”. For the same compound, the GI50 in series [15] fell in the range of 0.0132 to 0.23 µM. In addition, the tolerability entry in series [18] was “tolerated at all doses tested”.

The record behind these values is publication PMC6013247, “Preclinical characterization of INCB053914, a novel pan-PIM kinase inhibitor, alone and in combination with anticancer agents, in models of hematologic malignancies” (PLoS ONE, 2018).
